In patent US20260027145A1 (priority 2022, published 2026):
Entries after “also recorded” stand apart in the source; their conditions may differ. Like-named read-outs stand apart in the source and are kept apart here.

How the values were obtained:
resting pan-T cells [1] = type: cell-based, human
resting pan-T cells [2] = tested on: resting pan-T cells
IFITM1 [3] = type: cell-based, human
IFITM1 [4] = type: cell-based, human; remark: listed apart in the source
[5] = tested on: phosphorylated SAMHD1 (pSAMHD1); type: cell-based, human; conditions: CD4+ and CD8+ T cells; for proportion of pSAMHD1 to total SAMHD1: IL-7 15 ng/mL, IL-15 15 ng/mL or both
Procedure: The effect of IL-7 and IL-15 on phosphorylated SAMHD1 (pSAMHD1) and IFITM1 expression was assessed. CD4+ and CD8+ T cells were treated with either IL-2 (100 U/mL), IL-15 (15 ng/mL), IL-7 (15 ng/mL), or a composition comprising both IL-7 and IL-15. Cells were activated with anti-CD3/[…] antibody coated beads at a ratio of 3:1, and then cells were assessed for expression of IFITM1 or pSAMHD1. Aggregate densitometry across multiple donors are shown in FIG. 3A (CD8+) and FIG. 3B (CD4+), while representative western blots are also depicted in FIG. 3C (CD8+) and FIG. 3D (CD4+).

IFITM1 [6] = type: cell-based, human; remark: listed apart in the source
CD8+ cells = type: cell-based, human
IFITM1 [7] = type: cell-based, human; remark: listed apart in the source
resting pan-T cells [8] = type: cell-based, human; remark: listed apart in the source
pSAMHD1 = type: cell-based, human

With `C[C@@H]1[C@H](O)[C@@H](C)/C=C/C=C/C=C/C=C/C=C/C=C/C=C/[C@H](O[C@@H]2O[C@H](C)[C@@H](O)[C@H](N)[C@@H]2O)C[C@@H]2O[C@](O)(C[C@@H](O)C[C@@H](O)[C@H](O)CC[C@@H](O)C[C@@H](O)CC(=O)O[C@H]1C)C[C@H](O)[C@H]2C(=O)O` [AmphoB, Amphotericin B] the “concentrations at which gain in transduction efficiency is seen” value (resting pan-T cells [1]) was at least 0.1 µM, the “transduction efficiency (% GFP)” value (resting pan-T cells [1]) was “increased transduction efficiency” and the “CD8 and CD4 cell number” value (resting pan-T cells [2]) was “slightly reduced”. The “restriction factor IFITM1 (western blot)” value (IFITM1 [3]) was “inactivation or loss”.
For IL-15: recombinant cytokine, the IFITM1 expression (IFITM1 [4]) was “similarly increased” and the “proportion of pSAMHD1 to total SAMHD1” value [5] was “increased”.
For `CO[C@H]1C[C@@H]2CC[C@@H](C)[C@@](O)(O2)C(=O)C(=O)N2CCCC[C@H]2C(=O)O[C@H]([C@H](C)C[C@@H]2CC[C@@H](OC(=O)C(C)(CO)CO)[C@H](OC)C2)CC(=O)[C@H](C)/C=C(\C)[C@@H](O)[C@@H](OC)C(=O)[C@H](C)C[C@H](C)/C=C/C=C/C=C/1C` [TEM, temsirolimus], the “transduction of the GFP transgene (% GFP)” value (resting pan-T cells [1]) was “enhance transduction”, the IFITM1 protein expression (IFITM1 [6]) was “pronounced loss of IFITM1 protein expression” and the CD3 number (resting pan-T cells [2]) was “remained generally consistent”. For the same molecule, the “CD8 and CD4 T-cells (cell counts)” value (resting pan-T cells [2]) was “reduced” and the “transduction efficiency (viral copy number per diploid genome)” value (CD8+ cells) was “Increased transduction efficiency”.
In the case of `CO[C@H]1C[C@@H]2CC[C@@H](C)[C@@](O)(O2)C(=O)C(=O)N2CCCC[C@H]2C(=O)O[C@H]([C@H](C)C[C@@H]2CC[C@@H](O)[C@H](OC)C2)CC(=O)[C@H](C)/C=C(\C)[C@@H](O)[C@@H](OC)C(=O)[C@H](C)C[C@H](C)/C=C/C=C/C=C/1C` [rapamycin], the “downregulation of IFITM1 expression” value (IFITM1 [7]) is reported as 20-35% and the “reduction of IFITM1 expression” value (IFITM1 [7]) is reported as 5-40%.
In the case of IL-7: recombinant cytokine, the “transduction efficiency (% GFP) with cytokine pretreatment” value (resting pan-T cells [1]) is reported as “positively impact transduction; also recorded: increased transduction efficiency”, the IFITM1 expression (IFITM1 [4]) is reported as “similarly increased” and the “cytotoxicity (Nalm6 loss related to untransduced controls)” value (Nalm6 cells) is reported as “Increased cytotoxicity”. For the same molecule, the “transduction efficiency (% GFP)” value (resting pan-T cells [8]) was “did not lead to dose-dependent differences in transduction efficiency”, the “levels of pSAMHD1” value ([5]; IL-7 15 ng/mL pre-treatment) was “increased levels of pSAMHD1” and the “proportion of pSAMHD1 to total SAMHD1” value [5] was “increased”. The pSAMHD1 levels (pSAMHD1) was “increase in pSAMHD1 levels”.
